Measured values from patent publication US20110034472A1, “Novel Compounds for Treatment of Cancer and Disorders Associated With Angiogenesis Function” (UNIVERSITY OF SOUTHERN CALIFORNIA, priority 2004, published 2011).

What was measured:
[1] = tested on: panel of seven human cancer cell lines; test: MTT-assay, panel of seven human cancer cell lines; format: cell-based; settings: read-out: CC50 dose range
Method: The sensitivity of a panel of seven human cancer cell lines to SC144 was assessed by MTT-assay. […] The sensitivity towards SC144 was time- and dose-dependent.

SF-295 CNS cancer cells = test: Sensitivity of various cancer cells to SC144, SF-295; format: cell-based; settings: Homo sapiens
From the text: The studies were expanded to other cell lines. […] Subnanomolar to low nanomolar potency was also observed in HCT-116 and HT29 colon cancer cell lines (Table 2).

`O=C(NNc1nc2cc(F)ccc2n2cccc12)c1cnccn1` [SC144, Pyrazine-2-carboxylic acid N′-(7-fluoro-pyrrolo[1,2-a]quinoxalin-4-yl)-hydrazide] gave a CC50 [1] of 700 to 10000 nM and a CC50 (SF-295 CNS cancer cells) of 420 nM.
